These results are taken from patent publication US20020022746A1, “Method for the crystallization of iopamidol” (priority 1998, published 2002).

Where only a bound is given, the exact number is not on record here.

The data set is described as follows: Solubility of Iopamidol plotted against reflux time (FIG. 1). The class given is physicochemical. The procedure:
With reference to FIG. 1, there is a graph showing the solubility of Iopamidol plotted against reflux time when a ratio of Iopamidol:water:ethanol 4:1:8 (w/v/v) is used in accordance with the method of the present invention. As shown in this graph, the reflux for 4 hours or greater allows the crystallized Iopamidol to have a solubility of 80% or greater. […] Because Iopamidol monohydrates or pentahydrates are of about 50% solubility, the method of the present invention can convert Iopamidol monohydrates or pentahydrates into Iopamidol anhydrides.
FIG. 1 is a graph showing the solubility change of the Iopamidol with reflux time.

Regarding `C[C@H](O)C(=O)Nc1c(I)c(C(=O)NC(CO)CO)c(I)c(C(=O)NC(CO)CO)c1I` [Iopamidol], the solubility (crystallized Iopamidol, Iopamidol:water:ethanol 4:1:8 (w/v/v), reflux for 4 hours or greater) is reported as at least 80%.

As for `C[C@H](O)C(=O)Nc1c(I)c(C(=O)NC(CO)CO)c(I)c(C(=O)NC(CO)CO)c1I` [Iopamidol monohydrates, Iopamidol], the solubility entry (hydrated crystalline forms) is “about 50%”.
